Data taken from ChEMBL document CHEMBL3046105, “Synthesis and antihyperlipidemic efficiency of berberine-based HMG-CoA reductase inhibitor” (Med Chem Res, 2012).

Columns and labels:
Oryctolagus cuniculus [1] = test: Antihyperlipidemic activity in high fat-high cholesterol fed New Zealand Oryctolagus cuniculus (rabbit) assessed as low-density lipoprotein-cholesterol level in blood at 15 mg/kg, po for 40 days (reference value: 3.45 +/- 0.56 mmol/l); format: functional
Oryctolagus cuniculus [2] = test: Antihyperlipidemic activity in high fat-high cholesterol fed New Zealand Oryctolagus cuniculus (rabbit) assessed as high-density lipoprotein-cholesterol level in blood at 15 mg/kg, po for 40 days (reference value: 0.67 +/- 0.22 mmol/l); format: functional
Oryctolagus cuniculus [3] = test: Toxicity in high fat-high cholesterol fed New Zealand Oryctolagus cuniculus (rabbit) assessed as body weight at 15 mg/kg, po for 40 days; format: organism-based; design: dose 15 mg/kg, route oral; conditions: in vivo, 960 h
[4] = Toxicity in Mus musculus Kunming (mouse); format: organism-based; conditions: in vivo
Oryctolagus cuniculus [5] = test: Antihyperlipidemic activity in high fat-high cholesterol fed New Zealand Oryctolagus cuniculus (rabbit) assessed as triglyceride level in blood at 15 mg/kg, po for 40 days (reference value: 2.11 +/- 0.43 mmol/l); format: functional
Oryctolagus cuniculus [6] = test: Toxicity in high fat-high cholesterol fed New Zealand Oryctolagus cuniculus (rabbit) assessed as mortality at 15 mg/kg, po for 40 days; format: organism-based; design: dose 15 mg/kg, route oral; conditions: in vivo, 960 h
Oryctolagus cuniculus [7] = test: Antihyperlipidemic activity in high fat-high cholesterol fed New Zealand Oryctolagus cuniculus (rabbit) assessed as total cholesterol level in blood at 15 mg/kg, po for 40 days (reference value: 8.89 +/- 0.53 mmol/l); format: functional
[8] = target: T1, 3-hydroxy-3-methylglutaryl-coenzyme A reductase (Mus musculus) (UniProt Q01237); test: Inhibition of HMGR isolated from Mus musculus (mouse) liver assessed as change in NADPH at 8 umol/l by HPLC analysis
T1 sequence (whole entry): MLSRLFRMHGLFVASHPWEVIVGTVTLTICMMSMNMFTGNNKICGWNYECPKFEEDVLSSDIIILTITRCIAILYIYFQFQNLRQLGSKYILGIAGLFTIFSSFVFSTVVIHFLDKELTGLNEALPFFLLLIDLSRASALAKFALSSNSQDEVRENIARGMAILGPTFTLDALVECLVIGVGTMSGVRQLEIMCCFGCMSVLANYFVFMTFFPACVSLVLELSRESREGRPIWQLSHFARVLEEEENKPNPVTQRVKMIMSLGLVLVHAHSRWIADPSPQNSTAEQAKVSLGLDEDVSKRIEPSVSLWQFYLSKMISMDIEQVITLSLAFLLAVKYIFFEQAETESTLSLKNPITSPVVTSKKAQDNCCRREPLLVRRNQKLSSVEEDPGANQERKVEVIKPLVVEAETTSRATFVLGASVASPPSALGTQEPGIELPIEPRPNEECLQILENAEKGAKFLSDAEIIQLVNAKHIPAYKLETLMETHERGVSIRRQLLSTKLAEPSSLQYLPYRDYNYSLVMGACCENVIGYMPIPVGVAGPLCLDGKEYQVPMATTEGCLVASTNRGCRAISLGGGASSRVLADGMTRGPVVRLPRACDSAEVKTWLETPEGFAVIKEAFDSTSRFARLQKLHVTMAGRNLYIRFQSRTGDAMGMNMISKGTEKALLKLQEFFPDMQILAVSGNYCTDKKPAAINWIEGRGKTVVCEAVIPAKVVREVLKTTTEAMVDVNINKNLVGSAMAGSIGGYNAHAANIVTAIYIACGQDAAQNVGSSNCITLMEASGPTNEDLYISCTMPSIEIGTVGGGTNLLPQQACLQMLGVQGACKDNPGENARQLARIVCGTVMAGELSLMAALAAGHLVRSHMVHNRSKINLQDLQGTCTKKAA

Oryctolagus cuniculus [9] = test: Antihyperlipidemic activity in high fat-high cholesterol fed New Zealand Oryctolagus cuniculus (rabbit) assessed as total cholesterol level in blood at 4 mg/kg, po for 40 days (reference value: 8.89 +/- 0.53 mmol/l); format: functional
Oryctolagus cuniculus [10] = test: Antihyperlipidemic activity in high fat-high cholesterol fed New Zealand Oryctolagus cuniculus (rabbit) assessed as high-density lipoprotein-cholesterol level in blood at 4 mg/kg, po for 40 days (reference value: 0.67 +/- 0.22 mmol/l); format: functional
Oryctolagus cuniculus [11] = test: Antihyperlipidemic activity in high fat-high cholesterol fed New Zealand Oryctolagus cuniculus (rabbit) assessed as triglyceride level in blood at 4 mg/kg, po for 40 days (reference value: 2.11 +/- 0.43 mmol/l); format: functional
Oryctolagus cuniculus [12] = test: Antihyperlipidemic activity in high fat-high cholesterol fed New Zealand Oryctolagus cuniculus (rabbit) assessed as low-density lipoprotein-cholesterol level in blood at 4 mg/kg, po for 40 days (reference value: 3.45 +/- 0.56 mmol/l); format: functional

CCCCCCCCCCCCCCc1c2c(OC)c(OC)ccc2cc2[n+]1CCc1cc3c(cc1-2)OCO3.[Cl-] [8-TETRADECYL-BERBERINE CHLORIDE]
Activity (Oryctolagus cuniculus [1]): 2.41e+06 nmol/L
Activity (Oryctolagus cuniculus [2]): 730000 nmol/L
Activity (Oryctolagus cuniculus [3]): Non-toxic
LD50 [4]: 803 mg/kg
Activity (Oryctolagus cuniculus [5]): 1.73e+06 nmol/L
Activity (Oryctolagus cuniculus [6]): Non-toxic
Activity (Oryctolagus cuniculus [7]): 6.02e+06 nmol/L
inhibition [8]: 11.2%

CCCCCCCCCCCCc1c2c(OC)c(OC)ccc2cc2[n+]1CCc1cc3c(cc1-2)OCO3.[Cl-] [8-DODECYL-BERBERINE CHLORIDE]
Activity (Oryctolagus cuniculus [1]): 2.98e+06 nmol/L
Activity (Oryctolagus cuniculus [2]): 720000 nmol/L
Activity (Oryctolagus cuniculus [3]): Non-toxic
LD50 [4]: 752 mg/kg
Activity (Oryctolagus cuniculus [5]): 1.86e+06 nmol/L
Activity (Oryctolagus cuniculus [6]): Non-toxic
Activity (Oryctolagus cuniculus [7]): 6.04e+06 nmol/L
inhibition [8]: 4.2%

CCCCCCCCc1c2c(OC)c(OC)ccc2cc2[n+]1CCc1cc3c(cc1-2)OCO3.[Cl-] [8-OCTYL-BERBERINE CHLORIDE]
Activity (Oryctolagus cuniculus [1]): 3.06e+06 nmol/L
Activity (Oryctolagus cuniculus [2]): 700000 nmol/L
Activity (Oryctolagus cuniculus [3]): Non-toxic
LD50 [4]: 534 mg/kg
Activity (Oryctolagus cuniculus [5]): 1.95e+06 nmol/L
Activity (Oryctolagus cuniculus [6]): Non-toxic
Activity (Oryctolagus cuniculus [7]): 6.25e+06 nmol/L

CCCCCCCCCCCCCCCCCCc1c2c(OC)c(OC)ccc2cc2[n+]1CCc1cc3c(cc1-2)OCO3.[Cl-] [8-OCTADECYL-BERBERINE CHLORIDE]
Activity (Oryctolagus cuniculus [1]): 2.55e+06 nmol/L
Activity (Oryctolagus cuniculus [2]): 750000 nmol/L
Activity (Oryctolagus cuniculus [3]): Non-toxic
LD50 [4]: > 1000 mg/kg
Activity (Oryctolagus cuniculus [5]): 1.6e+06 nmol/L
Activity (Oryctolagus cuniculus [6]): Non-toxic
Activity (Oryctolagus cuniculus [7]): 2.37e+06 nmol/L
inhibition [8]: 33%

CC[C@H](C)C(=O)O[C@H]1C[C@@H](C)C=C2C=C[C@H](C)[C@H](CC[C@@H]3C[C@@H](O)CC(=O)O3)[C@H]21 [LOVASTATIN]
Activity (Oryctolagus cuniculus [9]): 2.56e+06 nmol/L
LD50 [4]: > 1000 mg/kg
Activity (Oryctolagus cuniculus [10]): 780000 nmol/L
Activity (Oryctolagus cuniculus [11]): 1.62e+06 nmol/L
Activity (Oryctolagus cuniculus [12]): 1.85e+06 nmol/L
inhibition [8]: 20.2%

COc1ccc2cc3[n+](cc2c1OC)CCc1cc2c(cc1-3)OCO2.[Cl-] [BERBERINE CHLORIDE]
Activity (Oryctolagus cuniculus [1]): 3.27e+06 nmol/L
Activity (Oryctolagus cuniculus [2]): 700000 nmol/L
LD50 [4]: 764 mg/kg
Activity (Oryctolagus cuniculus [5]): 2.02e+06 nmol/L
Activity (Oryctolagus cuniculus [7]): 7.94e+06 nmol/L
